# Compound: CC(C)C[C@H](NC(=O)[C@H](CCc1ccccc1)NC(=O)CN1CCOCC1)C(=O)N[C@@H](Cc1ccccc1)C(=O)N[C@@H](CC(C)C)C(=O)[C@@]1(C)CO1 [Carfilzomib] + N=C(N)NC(=N)NCCc1ccccc1 [Phenformin] (partner 250 µM)
# Assay: relative viability (nuclei count vs DMSO), 5 days (fraction); higher = more cells survive
# Details: first compound 0.1 µM
# How it was run: (§1)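 For relative viability, nuclei counts in treated wells were divided by those in vehicle wells. Lung cancer cell lines had been pin-tool dosed in 1536-well plates the day after seeding and cultured for 5 days, then fixed and stained in one step (final 0.05% Triton X-100, 1% formaldehyde, 1 ug/ml Hoechst) and imaged at 4×. Doses were one drug alone or a fixed anchor-drug dose plus five library-drug doses (not always all listed) in √10 steps, and values are duplicate-plate medians.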
row,Cell Line,relative viability
1,NCI-H1734,0.104
2,NCI-H1755,0.238
3,NCI-H1915,0.0555
4,NCI-H1975,0.0936
5,NCI-H1993,0.45
6,NCI-H2009,0.101
7,NCI-H2023,0.0723
8,NCI-H2085,0.244
9,NCI-H2087,0.0687
10,NCI-H2126,0.276
11,NCI-H2228,0.108
12,NCI-H2347,0.141
13,NCI-H2405,0.129
14,NCI-H3122,0.0931
15,PC-3 [JPC-3],0.261
16,PC-14,0.0595
17,RERF-LC-KJ,0.236

# Compound: O=C(c1cc(Cc2n[nH]c(=O)c3ccccc23)ccc1F)N1CCN(C(=O)C2CC2)CC1 [Olaparib] + CC(=O)c1c(C)c2cnc(Nc3ccc(N4CCNCC4)cn3)nc2n(C2CCCC2)c1=O [Palbociclib] (partner 0.5 µM)
# Assay: as above
# Details: first compound 0.08 µM
# How it was run: as §1
row,Cell Line,relative viability
1,LOU-NH91,0.55
2,LU99A,0.45
3,LXF-289,0.635
4,NCI-H23,0.586
5,NCI-H322M,0.468
6,NCI-H441,0.268
7,NCI-H460,0.0979
8,NCI-H520,0.239
9,NCI-H647,0.431
10,NCI-H650,0.324
11,NCI-H661,0.384
12,NCI-H727,0.655
13,NCI-H838,0.269
14,NCI-H1355,0.364
15,NCI-H1437,0.32
16,NCI-H1650,0.478
17,NCI-H1651,0.547
18,NCI-H1666,0.669

row,Cell Line,relative viability
1,NCI-H1734,0.337
2,NCI-H1755,0.415
3,NCI-H1915,0.529
4,NCI-H1975,0.593
5,NCI-H1993,0.49
6,NCI-H2009,0.233
7,NCI-H2023,0.413
8,NCI-H2085,0.559
9,NCI-H2087,0.282
10,NCI-H2126,0.374
11,NCI-H2228,0.792
12,NCI-H2347,0.381
13,NCI-H2405,0.577
14,NCI-H3122,0.206
15,PC-3 [JPC-3],0.531
16,PC-14,0.614
17,RERF-LC-KJ,1.17

# Same assay, conditions: first compound 0.253 µM
row,Cell Line,relative viability
1,LOU-NH91,0.538
2,LU99A,0.392
3,LXF-289,0.6
4,NCI-H23,0.542
5,NCI-H322M,0.408
6,NCI-H441,0.257
7,NCI-H460,0.0831
8,NCI-H520,0.207
9,NCI-H647,0.331
10,NCI-H650,0.312
11,NCI-H661,0.383
12,NCI-H727,0.601
13,NCI-H838,0.196
14,NCI-H1355,0.422
15,NCI-H1437,0.303
16,NCI-H1650,0.324
17,NCI-H1651,0.494

row,Cell Line,relative viability
1,NCI-H1666,0.717
2,NCI-H1734,0.327
3,NCI-H1755,0.436
4,NCI-H1915,0.469
5,NCI-H1975,0.607
6,NCI-H1993,0.653
7,NCI-H2009,0.205
8,NCI-H2023,0.34
9,NCI-H2085,0.453
10,NCI-H2087,0.211
11,NCI-H2126,0.364
12,NCI-H2228,0.667
13,NCI-H2347,0.431
14,NCI-H2405,0.497
15,NCI-H3122,0.193
16,PC-14,0.401
17,RERF-LC-KJ,0.964

# Same assay, conditions: first compound 2.53 µM
row,Cell Line,relative viability
1,LOU-NH91,0.526
2,LU99A,0.31
3,LXF-289,0.684
4,NCI-H23,0.475
5,NCI-H322M,0.515
6,NCI-H441,0.234
7,NCI-H460,0.0723
8,NCI-H520,0.179
9,NCI-H647,0.321
10,NCI-H650,0.311
11,NCI-H661,0.389
12,NCI-H727,0.618
13,NCI-H838,0.198
14,NCI-H1355,0.407
15,NCI-H1437,0.327
16,NCI-H1650,0.331
17,NCI-H1651,0.493
18,NCI-H1666,0.677

row,Cell Line,relative viability
1,NCI-H1734,0.29
2,NCI-H1755,0.445
3,NCI-H1915,0.405
4,NCI-H1975,0.569
5,NCI-H1993,0.83
6,NCI-H2009,0.194
7,NCI-H2023,0.397
8,NCI-H2085,0.477
9,NCI-H2087,0.259
10,NCI-H2126,0.343
11,NCI-H2228,0.731
12,NCI-H2347,0.393
13,NCI-H2405,0.491
14,NCI-H3122,0.194
15,PC-3 [JPC-3],0.52
16,PC-14,0.366
17,RERF-LC-KJ,1.08

# Same assay, conditions: first compound 8 µM
row,Cell Line,relative viability
1,LOU-NH91,0.533
2,LU99A,0.323
3,LXF-289,0.689
4,NCI-H23,0.5
5,NCI-H322M,0.462
6,NCI-H441,0.243
7,NCI-H460,0.0812
8,NCI-H520,0.152
9,NCI-H647,0.381
10,NCI-H650,0.227
11,NCI-H661,0.362
12,NCI-H727,0.561
13,NCI-H838,0.247
14,NCI-H1355,0.414
15,NCI-H1437,0.353
16,NCI-H1650,0.335
17,NCI-H1651,0.384
18,NCI-H1666,0.609

row,Cell Line,relative viability
1,NCI-H1734,0.304
2,NCI-H1755,0.436
3,NCI-H1915,0.294
4,NCI-H1975,0.502
5,NCI-H1993,0.735
6,NCI-H2009,0.17
7,NCI-H2023,0.292
8,NCI-H2085,0.459
9,NCI-H2087,0.217
10,NCI-H2126,0.35
11,NCI-H2228,0.452
12,NCI-H2347,0.409
13,NCI-H2405,0.496
14,NCI-H3122,0.188
15,PC-3 [JPC-3],0.534
16,PC-14,0.212
17,RERF-LC-KJ,1.02

# Source: the supplement of paper PMC10307832
